The values below come from patent publication US11492354B2, “Indazole compounds and uses thereof” (Incyte Corporation, priority 2018, dated 2022).

The target of this assay is HPK1 (Homo sapiens (Human), UniProt Q92918). As to the kind of experiment: HPK1 Kinase Binding Assay. To be noted: LanthaScreen tracer 222 binding, active HPK1, 1 h at 25° C. How it is done: A stock solution of 1 mM test compound was prepared in DMSO. The compound plate was prepared by 3-fold and 11-point serial dilutions. 0.1 μL of the compound in DMSO was transferred from the compound plate to the white 384 well polystyrene plates. The assay buffer contained 50 mM HEPES, pH 7.5, 0.01% Tween-20, 5 mM MgCl2, 0.01% BSA, and 5 mM DTT. 5 μL of 4 nM active HPK1 (SignalChem M23-11G) prepared in the buffer was added to the plate. The enzyme concentration given was based on the given stock concentration reported by the vender. […] After one hour incubation at 25° C., the plates were read on a PHERAstar FS plate reader (BMG Labtech). Ki values were determined.
HPK1, sequence (Q92918 1-346 limits assumed): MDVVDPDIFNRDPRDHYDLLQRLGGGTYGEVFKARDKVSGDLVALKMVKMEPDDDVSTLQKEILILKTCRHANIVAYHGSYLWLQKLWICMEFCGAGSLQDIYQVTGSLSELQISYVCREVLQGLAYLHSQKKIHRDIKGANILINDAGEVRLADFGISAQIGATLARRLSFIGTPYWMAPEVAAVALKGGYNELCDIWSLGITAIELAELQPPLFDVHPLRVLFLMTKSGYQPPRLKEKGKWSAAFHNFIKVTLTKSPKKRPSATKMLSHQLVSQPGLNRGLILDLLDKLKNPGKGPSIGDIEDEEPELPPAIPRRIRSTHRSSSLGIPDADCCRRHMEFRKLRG

Each structure is given as a SMILES string. Some results are limits rather than exact numbers.

`COc1cccc(F)c1-c1nccc(C(=O)Nc2cc(F)c3nn(C)cc3c2N2CCC[C@@H]2CN)n1` (single isomer, unassigned; peak 1) [10, Peak 1] registered a Ki of less than 100 nM.
